Assay results as given in paper PMC10458458, “Characterization of Anticancer Effects of the Analogs of DJ4, a Novel Selective Inhibitor of ROCK and MRCK Kinases” (Pharmaceuticals, 2023).

Columns and labels:
Experiment in all cases: KINOMEscan competition binding assay
KIT = molecular target: T1, KIT (Homo sapiens, UniProt P10721)
T1 construct: purchased DiscoverX Corporation (Lead Hunter Discovery Services, KINOMEscan)
From the text: (§1) To examine specificity of DJ4 to different human kinases, we performed a KINOMEscan profiling assay (DiscoverX, Fremont, CA, USA). The KINOMEscan assay consists of a panel of more than 480 kinases of different classes (TK/TKL/STE/CK1/AGC/CAMK/CMGC/others), including clinically relevant mutants, atypical kinases, lipid, and pathogen kinases. […] However, we also recognized the limitations of DJ4 that preclude its clinical development and the need for further optimization of the DJ4 chemotype.
(§2) The KINOMEscan®, in vitro competition binding assay, was performed by Lead Hunter Discovery Services (DiscoverX Corporation, Fremont, CA, USA) to determine the kinase specificity of DJ4, a novel kinase inhibitor [19, 44]. The KINOMEscan® panel consists of more than 480 kinases, including clinically relevant mutants, lipid, atypical, and pathogen kinases, plus a growing panel of activation-state specific assays. The primary screen was performed using a single concentration of 10 µM, and the results for DJ4 binding interactions are reported as percent of control (%Ctrl). The %Ctrl is calculated as follows: [(DJ4 signal-positive control signal)/(negative control DMSO signal-positive control signal)] x […]. The human kinome tree annotation for DJ4 is plotted with Reaction Biology’s Kinase Mapper and KinMap web interface tool http://kinhub.org/kinmap (accessed on 09 January 2023).

MRCK1 = molecular target: T2, MRCK1 (Homo sapiens, UniProt Q5VT25); details: MRCK1, 10 µM
T2 construct: purchased DiscoverX Corporation (Lead Hunter Discovery Services, KINOMEscan)
From the text: as §1, §2

FLT3 = molecular target: T3, FLT3 (Homo sapiens, UniProt P36888); details: FLT3, 10 µM
T3 construct: purchased DiscoverX Corporation (Lead Hunter Discovery Services, KINOMEscan)
From the text: as §1, §2

CDK7 = molecular target: T4, CDK7 (Homo sapiens, UniProt P50613); details: CDK7, 10 µM
T4 construct: purchased DiscoverX Corporation (Lead Hunter Discovery Services, KINOMEscan)
From the text: as §1, §2

CDK8 = molecular target: T5, CDK8 (Homo sapiens, UniProt P49336); details: CDK8, 10 µM
T5 construct: purchased DiscoverX Corporation (Lead Hunter Discovery Services, KINOMEscan)
From the text: as §1, §2

MRCK2 = molecular target: T6, MRCK2 (Homo sapiens, UniProt Q9Y5S2); details: MRCK2, 10 µM
T6 construct: purchased DiscoverX Corporation (Lead Hunter Discovery Services, KINOMEscan)
From the text: as §1, §2

CDK9 = molecular target: T7, CDK9 (Homo sapiens, UniProt P50750); details: CDK9, 10 µM
T7 construct: purchased DiscoverX Corporation (Lead Hunter Discovery Services, KINOMEscan)
From the text: as §1, §2

CDK14 = molecular target: T8, CDK14 (Homo sapiens, UniProt O94921); details: CDK14, 10 µM
T8 construct: purchased DiscoverX Corporation (Lead Hunter Discovery Services, KINOMEscan)
From the text: as §1, §2

Measured: inhibition at 10 µM

T2 sequence (Q5VT25 whole entry): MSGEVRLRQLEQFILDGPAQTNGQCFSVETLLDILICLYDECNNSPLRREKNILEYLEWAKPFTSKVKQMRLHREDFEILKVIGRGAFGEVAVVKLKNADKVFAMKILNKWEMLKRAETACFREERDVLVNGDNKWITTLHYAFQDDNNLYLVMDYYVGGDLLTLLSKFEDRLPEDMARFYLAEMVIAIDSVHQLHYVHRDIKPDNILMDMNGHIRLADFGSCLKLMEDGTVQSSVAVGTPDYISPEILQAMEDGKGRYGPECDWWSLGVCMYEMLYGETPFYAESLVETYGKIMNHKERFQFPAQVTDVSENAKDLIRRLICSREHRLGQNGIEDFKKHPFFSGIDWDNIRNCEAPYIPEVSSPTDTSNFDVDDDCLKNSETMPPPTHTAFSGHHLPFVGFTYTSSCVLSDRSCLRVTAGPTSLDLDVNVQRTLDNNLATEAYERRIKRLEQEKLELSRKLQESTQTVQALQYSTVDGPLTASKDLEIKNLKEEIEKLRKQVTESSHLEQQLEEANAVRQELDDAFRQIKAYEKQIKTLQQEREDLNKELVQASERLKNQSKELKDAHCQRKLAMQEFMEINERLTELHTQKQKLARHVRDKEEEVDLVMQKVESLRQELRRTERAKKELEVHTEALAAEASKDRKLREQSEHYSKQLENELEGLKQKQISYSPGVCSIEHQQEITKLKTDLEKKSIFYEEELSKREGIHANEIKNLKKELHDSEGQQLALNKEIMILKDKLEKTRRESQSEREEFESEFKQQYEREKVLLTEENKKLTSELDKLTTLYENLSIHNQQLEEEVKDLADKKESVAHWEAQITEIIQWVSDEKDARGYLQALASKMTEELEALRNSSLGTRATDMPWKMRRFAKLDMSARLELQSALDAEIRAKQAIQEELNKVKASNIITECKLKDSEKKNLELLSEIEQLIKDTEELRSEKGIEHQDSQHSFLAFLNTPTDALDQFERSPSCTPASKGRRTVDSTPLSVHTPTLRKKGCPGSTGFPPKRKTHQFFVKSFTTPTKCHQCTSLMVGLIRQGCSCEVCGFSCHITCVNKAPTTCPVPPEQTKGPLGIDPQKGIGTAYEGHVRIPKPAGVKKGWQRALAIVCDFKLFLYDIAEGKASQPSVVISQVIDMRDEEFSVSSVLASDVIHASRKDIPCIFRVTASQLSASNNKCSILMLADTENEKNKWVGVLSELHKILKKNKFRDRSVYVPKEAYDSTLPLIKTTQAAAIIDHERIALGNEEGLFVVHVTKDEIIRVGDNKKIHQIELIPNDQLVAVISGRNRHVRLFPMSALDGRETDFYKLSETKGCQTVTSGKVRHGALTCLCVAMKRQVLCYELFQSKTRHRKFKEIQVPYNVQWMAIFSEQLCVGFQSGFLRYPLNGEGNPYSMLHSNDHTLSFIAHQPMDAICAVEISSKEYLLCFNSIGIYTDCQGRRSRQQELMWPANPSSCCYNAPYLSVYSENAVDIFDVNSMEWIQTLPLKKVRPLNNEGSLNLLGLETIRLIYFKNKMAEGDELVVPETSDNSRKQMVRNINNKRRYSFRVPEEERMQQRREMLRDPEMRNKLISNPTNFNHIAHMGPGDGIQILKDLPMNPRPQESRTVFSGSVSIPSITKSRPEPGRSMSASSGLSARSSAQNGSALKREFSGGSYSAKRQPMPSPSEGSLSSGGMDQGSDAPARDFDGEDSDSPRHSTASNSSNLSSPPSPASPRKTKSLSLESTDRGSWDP
T3 sequence (P36888 27-993): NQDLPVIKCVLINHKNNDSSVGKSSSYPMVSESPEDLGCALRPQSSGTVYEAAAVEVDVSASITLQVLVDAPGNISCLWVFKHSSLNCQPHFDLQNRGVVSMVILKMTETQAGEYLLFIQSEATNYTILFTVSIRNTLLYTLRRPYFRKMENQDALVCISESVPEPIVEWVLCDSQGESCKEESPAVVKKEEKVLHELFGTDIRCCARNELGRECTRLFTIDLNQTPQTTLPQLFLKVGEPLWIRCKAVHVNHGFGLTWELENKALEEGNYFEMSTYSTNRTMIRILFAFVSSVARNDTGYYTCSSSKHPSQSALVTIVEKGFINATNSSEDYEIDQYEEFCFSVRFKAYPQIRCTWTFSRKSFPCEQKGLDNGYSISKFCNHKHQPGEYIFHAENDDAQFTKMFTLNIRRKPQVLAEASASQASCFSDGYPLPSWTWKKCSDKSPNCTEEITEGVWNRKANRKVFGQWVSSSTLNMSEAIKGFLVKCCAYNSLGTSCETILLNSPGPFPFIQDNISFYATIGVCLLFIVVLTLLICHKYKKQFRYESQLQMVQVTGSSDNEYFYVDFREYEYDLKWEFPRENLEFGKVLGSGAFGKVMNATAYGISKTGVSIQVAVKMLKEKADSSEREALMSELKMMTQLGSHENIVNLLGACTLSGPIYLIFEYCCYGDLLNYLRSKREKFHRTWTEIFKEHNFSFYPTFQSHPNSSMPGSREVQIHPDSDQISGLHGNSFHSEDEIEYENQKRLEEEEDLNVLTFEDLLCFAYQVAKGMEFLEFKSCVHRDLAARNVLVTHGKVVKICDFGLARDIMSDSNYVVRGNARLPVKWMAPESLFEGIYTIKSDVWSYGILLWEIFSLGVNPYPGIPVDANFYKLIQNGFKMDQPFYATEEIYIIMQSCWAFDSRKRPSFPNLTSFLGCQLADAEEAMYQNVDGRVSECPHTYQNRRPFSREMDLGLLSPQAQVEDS
T8 sequence (O94921 whole entry): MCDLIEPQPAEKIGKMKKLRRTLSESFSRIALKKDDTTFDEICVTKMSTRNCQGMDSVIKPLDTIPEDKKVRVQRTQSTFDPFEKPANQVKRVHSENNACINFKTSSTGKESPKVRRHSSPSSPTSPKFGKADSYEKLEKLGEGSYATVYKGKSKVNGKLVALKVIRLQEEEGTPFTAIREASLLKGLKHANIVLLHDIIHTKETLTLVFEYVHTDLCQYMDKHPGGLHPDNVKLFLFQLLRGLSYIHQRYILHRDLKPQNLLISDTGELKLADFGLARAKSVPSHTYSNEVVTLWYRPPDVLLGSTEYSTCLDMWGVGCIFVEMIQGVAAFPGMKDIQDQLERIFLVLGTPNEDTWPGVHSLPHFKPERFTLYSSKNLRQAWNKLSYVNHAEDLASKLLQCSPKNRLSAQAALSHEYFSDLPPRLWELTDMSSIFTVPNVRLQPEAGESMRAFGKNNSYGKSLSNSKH
T1 sequence (P10721 26-976): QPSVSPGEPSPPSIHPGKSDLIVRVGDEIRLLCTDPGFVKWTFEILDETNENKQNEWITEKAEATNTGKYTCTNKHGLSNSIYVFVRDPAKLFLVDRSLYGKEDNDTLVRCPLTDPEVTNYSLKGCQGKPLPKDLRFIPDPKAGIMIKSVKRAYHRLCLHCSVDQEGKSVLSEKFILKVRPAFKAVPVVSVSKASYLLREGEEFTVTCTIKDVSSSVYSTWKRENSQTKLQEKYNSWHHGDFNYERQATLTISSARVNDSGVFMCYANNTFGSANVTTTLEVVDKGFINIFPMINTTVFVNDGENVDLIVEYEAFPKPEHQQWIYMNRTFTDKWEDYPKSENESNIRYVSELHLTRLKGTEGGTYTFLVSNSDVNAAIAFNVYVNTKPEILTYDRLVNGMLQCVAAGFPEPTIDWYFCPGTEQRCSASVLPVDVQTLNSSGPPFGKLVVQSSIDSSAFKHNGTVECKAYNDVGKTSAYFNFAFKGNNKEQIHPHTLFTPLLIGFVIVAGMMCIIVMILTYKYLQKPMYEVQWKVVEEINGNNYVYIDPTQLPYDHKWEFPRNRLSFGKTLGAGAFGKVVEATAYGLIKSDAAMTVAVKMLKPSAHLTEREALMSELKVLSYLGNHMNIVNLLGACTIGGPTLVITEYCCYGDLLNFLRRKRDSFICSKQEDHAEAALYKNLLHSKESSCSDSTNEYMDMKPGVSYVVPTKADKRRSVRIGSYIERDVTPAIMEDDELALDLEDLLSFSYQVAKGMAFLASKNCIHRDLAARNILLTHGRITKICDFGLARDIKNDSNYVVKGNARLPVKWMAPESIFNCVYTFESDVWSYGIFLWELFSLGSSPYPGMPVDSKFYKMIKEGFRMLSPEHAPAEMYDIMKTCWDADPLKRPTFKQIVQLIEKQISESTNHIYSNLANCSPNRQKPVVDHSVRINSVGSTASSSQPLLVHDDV
T7 sequence (P50750 whole entry): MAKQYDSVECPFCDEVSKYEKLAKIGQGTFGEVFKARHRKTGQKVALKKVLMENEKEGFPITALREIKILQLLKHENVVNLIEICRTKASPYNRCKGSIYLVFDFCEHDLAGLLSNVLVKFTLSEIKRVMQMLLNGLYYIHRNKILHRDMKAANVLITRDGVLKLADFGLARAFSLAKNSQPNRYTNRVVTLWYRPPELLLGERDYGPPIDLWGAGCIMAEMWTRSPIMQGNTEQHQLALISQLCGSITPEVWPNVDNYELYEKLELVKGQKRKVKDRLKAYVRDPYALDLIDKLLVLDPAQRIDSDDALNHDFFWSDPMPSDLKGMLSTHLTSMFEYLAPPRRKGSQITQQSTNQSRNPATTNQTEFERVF
T4 sequence (P50613 whole entry): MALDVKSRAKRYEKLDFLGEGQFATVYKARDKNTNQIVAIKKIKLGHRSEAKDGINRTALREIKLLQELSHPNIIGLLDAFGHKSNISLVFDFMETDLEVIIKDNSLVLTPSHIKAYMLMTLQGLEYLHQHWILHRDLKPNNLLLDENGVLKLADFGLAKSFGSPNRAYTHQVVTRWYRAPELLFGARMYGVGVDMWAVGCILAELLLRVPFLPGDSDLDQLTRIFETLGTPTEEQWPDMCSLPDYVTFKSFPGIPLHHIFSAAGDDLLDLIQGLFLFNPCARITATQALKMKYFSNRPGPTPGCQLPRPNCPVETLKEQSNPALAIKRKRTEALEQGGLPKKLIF

O=C1N/C(=N\CCc2ccccc2)S/C1=C/c1c[nH]c2ncccc12 [DJ4]
> 98%: all assays above
